Consider one compound from ChEMBL document CHEMBL1132116, “Abasic site recognition in DNA as a new strategy to potentiate the action of anticancer alkylating drugs?” (1999).

Assay [1] has as its system Mus musculus. Nature of the assay: Number of surviving Mice after 60 days of administration of the compound; Survivals= 0/6. The assay is classed as functional.
Assay [2] deals with Mus musculus. The experiment in a line: Number of surviving Mice in the presence (N,N''-bis(2-chloroethyl)-N-nitrosourea) of BCNU after 60 days of administration of the compound; Survivals= 6/6. Format: functional.
Assay [3] is filed under the species Mus musculus. The experiment in a line: Rate of survival of treated Mice to survival of controls * 100. The assay is classed as functional.
A further assay has as its system P388. The experiment in a line: Inhibitory activity against P388 murine leukemia at 2 mg/kg concentration. The assay is classed as functional, Mus musculus.

As to `COc1ccc2nc3cc(Cl)ccc3c(NCCCN(CCCN(CCn3cnc4c(N)ncnc43)C(=N)N)C(=N)N)c2c1`, the Survival came out at 0 with Mus musculus [1], 6 in the assay with Mus musculus [2] and 16.2 days in the assay on P388. Besides, in the assay filed under Mus musculus [3], the T/C amounted to 109.
